Laboratory results reported in patent US10316008B2, “KCNQ potassium channel agonist, and preparation method therefor and use thereof” (SHANGHAI INSTITUTE OF MATERIA MEDICA, CHINESE ACADEMY OF …, priority 2014, dated 2019).
Structures can show the parent of a compound that is named as a salt.

Key:
[1] = system: KCNQ potassium channel; assay: Whole-cell voltage-clamp recording in CHO-K1 cells transfected with KCNQ plasmid; type: cell-based; conditions: for I/I0: current enhancement factor, −10 mV testing voltage, compound concentration 10 μM, >1 activating, <1 inhibiting; for ΔV1/2: shift of V1/2, negative sign = left-ward shift of current activation curve, compound 10 μM, CHO-K1 cells
Protocol: The culture medium for Chinese hamster oocytes (CHO-K1) (Culture Collection of Chinese Academy of Sciences): 50/50 DMEM/F-12 (Cellgro, Manassas, Va.), added with 10% fetal bovine serum (FBS) (Gibco, Australia) and 2 mM L-glutamic acid (Invitrogen). […] Lipofectamine 2000™ agent (Invitrogen) was used for Transfection according to the protocol thereof. GFP (green fluorescent protein) was cotransfected to be used as a indication of successful converting into KCNQ plasmid.
Whole-cell voltage-clamp recording was performed on an Axopatch-200B amplifier (Molecular Devices, Sunnyvale, Calif.) at room temperature. The electrode was made by drawing borosilicate glass capillary (World Precision Instruments, Sarasota, Fla.). The electric resistance of the electrode filled with an intracellular fluid is 3 to 5 MΩ. […] During the recording, an extracellular fluid was continuously perfused by using a BPS perfusion system (ALA Scientific Instruments, Westburg, N.Y.). The composition of the extracellular fluid (1 L) was as follows: 140 mM NaCl(Sigma), 5 mM KCl(Sigma), 2 mM CaCl2(Sigma), 1.5 mM MgCl2(Sigma), 10 mM HEPES(Sigma) and 10 mM glucose(Sigma) (pH was adjusted to 7.4 with NaOH). […] Series resistors compensate 60 to 80%. Up to date, multivoltage scheme was generally adopted, wherein the clamp voltage was set at −80 mV, stimulating voltage was a gradient voltage from −90 mV to 60 mV with interval of 10 mV, and the stimulating time for each voltage was 2000 ms.
V1/2 is the voltage at which 50% of cells were activated, ΔV1/2 is the shift amount of V1/2, negative sign (−) represents a left-ward shift of the current activation curve. I/I0 represents the current enhancement factor, wherein, I0 is the maximum induced current produced under stimulation of −10 mV testing voltage after administrating cells with blank extracellular fluid, I is the maximum induced current produced under stimulation of −10 mV testing voltage after administrating the drug (the compound concentration was 10 μM), I/I0>1 represents activating activity, and I/I0<1 represents inhibiting activity. N is the number of tested cells. NT represents non-tested.

[2] = molecular target: T1, KCNQ2 homotetramer channel (Homo sapiens, UniProt O43526); assay: KCNQ2 channel dose-response curve in CHO-K1 cells transfected with KCNQ2 plasmid; type: cell-based
T1 construct: expressed in transfected cells; host or cells: CHO-K1
T1 sequence (O43526 whole entry): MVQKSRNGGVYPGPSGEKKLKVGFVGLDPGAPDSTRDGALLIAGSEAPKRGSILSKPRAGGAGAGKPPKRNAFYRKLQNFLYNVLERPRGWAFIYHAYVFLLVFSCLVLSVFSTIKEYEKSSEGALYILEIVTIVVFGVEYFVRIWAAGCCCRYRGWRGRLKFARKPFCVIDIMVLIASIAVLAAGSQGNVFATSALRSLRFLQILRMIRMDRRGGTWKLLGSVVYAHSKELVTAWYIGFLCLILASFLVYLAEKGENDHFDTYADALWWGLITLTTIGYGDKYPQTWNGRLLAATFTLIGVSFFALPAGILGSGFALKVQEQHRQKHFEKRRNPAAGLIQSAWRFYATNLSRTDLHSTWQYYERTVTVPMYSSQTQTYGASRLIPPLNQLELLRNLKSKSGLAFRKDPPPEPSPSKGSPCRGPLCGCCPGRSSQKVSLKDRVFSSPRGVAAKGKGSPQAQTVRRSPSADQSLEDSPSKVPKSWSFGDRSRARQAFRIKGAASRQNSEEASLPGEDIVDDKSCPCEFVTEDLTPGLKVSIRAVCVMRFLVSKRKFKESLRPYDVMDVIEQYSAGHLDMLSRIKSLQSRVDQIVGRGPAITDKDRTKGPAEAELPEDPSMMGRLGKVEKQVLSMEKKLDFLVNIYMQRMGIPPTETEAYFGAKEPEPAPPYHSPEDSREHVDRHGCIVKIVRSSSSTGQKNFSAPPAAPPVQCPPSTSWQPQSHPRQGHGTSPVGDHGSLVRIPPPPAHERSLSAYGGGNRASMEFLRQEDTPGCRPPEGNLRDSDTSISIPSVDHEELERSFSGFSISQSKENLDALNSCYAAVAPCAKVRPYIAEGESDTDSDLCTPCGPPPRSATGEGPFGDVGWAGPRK
Protocol: The culture medium for Chinese hamster oocytes (CHO-K1) (Culture Collection of Chinese Academy of Sciences): 50/50 DMEM/F-12 (Cellgro, Manassas, Va.), added with 10% fetal bovine serum (FBS) (Gibco, Australia) and 2 mM L-glutamic acid (Invitrogen). Expression of KCNQ channels: 24 h before transfection, CHO-K1 spreaded on a dish with a diameter of 60 mm. Lipofectamine 2000™ agent (Invitrogen) was used for Transfection according to the protocol thereof. GFP (green fluorescent protein) was cotransfected to be used as a indication of successful converting into KCNQ plasmid.
Whole-cell voltage-clamp recording was performed on an Axopatch-200B amplifier (Molecular Devices, Sunnyvale, Calif.) at room temperature. The electrode was made by drawing borosilicate glass capillary (World Precision Instruments, Sarasota, Fla.). The electric resistance of the electrode filled with an intracellular fluid is 3 to 5 MΩ. The composition of the intracellular fluid (1 L) was as follows: 145 mM KCl(Sigma), 1 mM MgCl2(Sigma), 5 mM EGTA(Sigma), 10 mM HEPES(Sigma) and 5 mM MgATP(Sigma) (pH was adjusted to 7.3 with KOH). During the recording, an extracellular fluid was continuously perfused by using a BPS perfusion system (ALA Scientific Instruments, Westburg, N.Y.). The composition of the extracellular fluid (1 L) was as follows: 140 mM NaCl(Sigma), 5 mM KCl(Sigma), 2 mM CaCl2(Sigma), 1.5 mM MgCl2(Sigma), 10 mM HEPES(Sigma) and 10 mM glucose(Sigma) (pH was adjusted to 7.4 with NaOH). Electric signal was filtered at 1 kHz and further converted into digital signal by using pClamp 9.2 software (Molecular Devices, Sunnyvale, Calif.) in DigiData 1322A. Series resistors compensate 60 to 80%. Up to date, multivoltage scheme was generally adopted, wherein the clamp voltage was set at −80 mV, stimulating voltage was a gradient voltage from −90 mV to 60 mV with interval of 10 mV, and the stimulating time for each voltage was 2000 ms.
The experimental procedure was the same as that in Electrophysiological Example 1. […]

[3] = system: convulsive mice induce by MES; assay: MES (maximum electroshock) induced convulsion model, oral perfusion; type: in vivo, KM mice; conditions: Mus musculus, 0.5 h; mice, oral perfusion, MES 30 mins after administration; read-out: ED50 (50% effective dose)
Excerpt: YLS-9A model physiological pharmaceutical electronic stimulator was used in the experiment to induce convulsion of mice, and specific parameters were set as follows: configuration 8, stimulating voltage: 160V, period of stimulation: 5.4 sec. Healthy KM mice (SPF level, male, body weight: 18 to 22 g) were selected for the experiment. After the ear tip of the mice was sufficiently wetted with physiological saline, the mice was electrically stimulated once with ear clip electrode, and tonic hind-limb seizure was deemed as indication of convulsion. The mice were screened one day before the experiment to weed out the dead mice and the ones without generalized tonic seizure. The qualified mice were caged randomly with access to water at liberty. Before the experiment started, the mice were fasted for 8 h.
The compounds to be tested were freshly formulated on the day of experiment. RTG hydrochloride was dissolved with ultrapure water to obtain a solution with desired concentration. K41.HCl and K43.HCl were formulated with 5% DMSO+95% of 1% Tween80, that is, a proper amount of the compound to be tested was weighted and, first, sufficiently dissolved in 5% DMSO, and then added with a desire volume of 1% Tween80 to be sufficiently suspended to form a suspension with a certain drug concentration. The mice screened one day before were randomly grouped with each group having 10 mice, marked, weighted and then administered with the compound to be tested or solvent (5% DMSO+95% (1% Tween 80)) by oral perfusion with administered volume of 0.2 ml/10 g. The dose range for each compound was 1 to 56 mg/kg for RTG, 1 to 40 mg/kg for K41.HCl, and 0.5 to 4 mg/kg for K43.HCl. 30 mins after administration, MES experiment was performed and the experimental parameters were the same as the above. The number of mice with generalized tonic-clonic convulsion in each group was recorded, the protection rate of each of the compounds to be tested on convulsive mice induce by MES was calculated and dose-response curve for each compound was plotted. The dose-response curve for each compound was obtained according to the analysis of Graphpad Prism 5 software, as shown in FIG. 3.

[4] = Rotarod experiment, motor coordination ability (acute neurotoxicity); type: in vivo, KM mice; conditions: both sexes, KM, mouse, in vivo; mice, oral perfusion, Rotarod 30 mins after administration; read-out: TD50 (50% acute neurotoxicity dose)
Protocol: (§1) YLS-4C Rotarod system was used in the experiment, wherein the diameter of the rod was 3 cm and the rotate speed was set at 6 rpm. Healthy KM mice (SPF level) were selected, wherein male and female were equal, the body weight was 18 to 22 g. One day before experiment, the mice were place on the rotarod for training and screening. The tail tip of mice was held to make them creep on the rotarod during the training. […] The mice that jumped on the rotarod or griped the rotarod were weed out. In addition, three time periods were set with 1 min for each. […] The qualified mice were randomly caged according to the gender, and allowed to eat and drink freely.
(§2) On the day of the experiment, each compound to be tested was freshly formulated by the same method as described in MES experiment. If the compound was not sufficiently suspended, the suspension was further mixed by ultrasonication for 20 min so as to make the compound sufficiently suspended. […] 30 mins after administration, Rotarod experiment was performed and the experiment parameters were the same as the above. The number of mice that fell off from the rorarod was recorded, and the influence of each compound on motor coordination ability of mice was analyzed. The curve for dose of each compound verse motor deficit (percentage) of mice for each compound was obtained according to the analysis of Graphpad Prism 5 software and was shown in FIG. 4.

[5] = system: motor coordination ability of mice; assay: as above; type: in vivo, KM mice; conditions: TD50 Rotarod / ED50 MES
Protocol: as §1, §2

[6] = data from FDA Pharmacology Review(s), Potiga tablets; cited from earlier work
[7] = Stability of solution exposed to air; conditions: solution exposed to air (aqueous solution for RTG hydrochloride)

Row | Compound | I/I0 [1] | ΔV1/2 [1] [mV] | also measured
1 | C#CCN(Cc1ccc(F)cc1)c1ccc(NC(=O)OC)c(OC(F)(F)F)c1 [K48•HCl] | 1.24 ± 0.16 | −13.2 ± 1.5 | 
2 | [2H]C([2H])(C#C)N(Cc1ccc(F)cc1)c1ccc(NC(=S)OC)cc1 [K47•HCl, methyl 4-(N-parafluorobenzyl-N-3,3-dideuteriumpropargyl-amino)phenylaminothioformate] | 2.10 ± 0.08 | −18.10 ± 0.03 | 
3 | C#CCN(Cc1ccc(F)cc1)c1ccc(NC(=O)OC)cc1OC [K45•HCl] | 0.57 ± 0.01 | −5.1 ± 0.9 | 
4 | CCOC(=O)Nc1ccc(NCc2ccc(F)cc2)cc1N [RTG, retigabine, reference compound] |  |  | EC50 [2]: 1.32 µM; ED50 [3]: 21.8 mg/kg; TD50 at 30 min [4]: 74.2 mg/kg; P.I (Protective index)=TD50/ED50 [5]: 3.40; reported lethal dose [6]: 100 mg/kg; stability of solution exposed to air [7]: quickly become blue and insoluble precipitate is formed
5 | C#CCN(Cc1ccc(F)cc1)c1ccc(NC(=O)COC)cc1 [K52•HCl, N-[4-(N-p-fluorobenzyl-N-propargyl-amino)-phenyl]-2-methoxyacetamide] | 5.80 ± 0.52 | −10.93 ± 1.86 | 
6 | C#CCN(Cc1ccc(F)cc1)c1ccc(NC(=O)OC)c(OC)c1 [K46•HCl] | 1.52 ± 0.55 | −6.5 ± 2.1 | 
7 | methyl 4-(N-parafluorobenzyl-N-3-cyclopropyl propargyl-amino) phenylaminothioformate [K59•HCl] | 1.01 ± 0.13 | −0.14 ± 2.33 | 
8 | C#CCN(Cc1ccc(F)cc1)c1c(C)cc(NC(=O)OC)cc1C [K44•HCl] | 0.72 ± 0.05 | 13.47 ± 2.13 | 
9 | C#CCN(Cc1ccc(F)cc1)c1ccc(NC(=O)C2CCC(F)(F)CC2)cc1 [K58•HCl] | 1.78 ± 0.19 | −33.68 ± 1.05 | 
10 | C#CCN(Cc1ccc(F)cc1)c1ccc(NC(=O)CC(=O)OC)cc1 [K57•HCl] | 8.13 ± 2.57 | −31.55 ± 0.86 | 
11 | C#CCN(Cc1ccc(F)cc1)c1ccc(NC(=O)CN(C)C)cc1 [K55•HCl] | 1.72 ± 0.14 | −10.76 ± 4.51 | 
12 | C#CCN(Cc1ccc(F)cc1)c1ccc(NC(=S)OC)cc1 [K49•HCl, methyl 4-(N-parafluorobenzyl-N-propargyl-amino) phenylaminothioformate] | 4.4 ± 1.6 | −22 ± 2.5 | 
13 | C#CCN(Cc1ccc(F)cc1)c1ccc(NC(=O)N(C)OC)cc1 [K51•HCl] | 1.61 ± 0.08 | −8.89 ± 1.12 | 
14 | C#CCN(Cc1ccc(F)cc1)c1ccc(NC(=O)COCC)cc1 [K53•HCl] | 7.31 ± 1.09 | −14.81 ± 0.92 | 
15 | C#CCN(Cc1ccc(F)cc1)c1ccc(NC(=O)CNC(C)=O)cc1 [K56•HCl] | 1.10 ± 0.10 | −2.0 ± 1.3 | 
16 | C#CCN(Cc1ccc(F)cc1)c1ccc(NC(=O)OC)c(C#N)c1 [K42•HCl] | 0.52 ± 0.01 | −5.2 ± 0.7 | 
17 | C#CCN(Cc1ccc(F)cc1)c1ccc(NC(=O)C2CCCO2)cc1 (stereo not shown) [K54•HCl] | 7.55 ± 1.92 | −30.9 ± 4.1 | 
18 | C#CCN(Cc1ccc(F)cc1)c1ccc(NC(=O)OC)cc1C [K40•HCl] | 1.40 ± 0.04 | −3.42 ± 1.54 | 
